Consider 1 compound from EP4786461A1, “PYRAZOLE CARBOXYLIC ACID DERIVATIVE AND USE THEREOF IN MEDICINE” (Haisco Pharmaceutical Group Co., Ltd., priority 2023, dated 2025).

pEC50: −log10 of the molar value. A value given as a limit tells only on which side of the number the result lay.

Data set [1] in a line: Stability test in rat liver microsomes. The class given is in vitro ADME. Particulars: rat, microsomes, rat liver microsomes 0.5 mg/mL, 1 µM compound, NADPH regeneration system, 37°C. How it is done: At 37°C, 1 µM of the test compound was incubated with rat liver microsomes (0.5 mg/mL) supplemented with an NADPH regeneration system for 5, 10, 20, 30 and 60 minutes, and then the LC-MS/MS method was used to detect the concentration of the test compound in the resulting sample. The half-life (T1/2) and intrinsic clearance (CLint(mic)) of the compound in rat liver microsome solution were obtained by calculating the remaining percentage of the compound at the corresponding time points.

Data set [2] in a line: Rat pharmacokinetic assay. Particulars: rat, po; rats, i.g., 10 mg/kg, plasma; read-out: AUC. The class given is in vivo, SD rats. As for the experimental part:
Experimental animals: male SD rats, 180-200 g, purchased from Chengdu Dossy Experimental Animals Co., Ltd.
Experimental design: On the day of the experiment, the SD rats were randomly grouped according to their body weight. The animals were fasted but with water available overnight before the administration, and fed 4 h after the administration.
Blood was taken from the orbits at specified time points, and placed in an EDTAK2 centrifuge tube. The tube was centrifuged at 5000 rpm for 10 min, and the plasma was collected.
Blood sampling time points for the intravenous administration group: 0, 5 min, 15 min, 30 min, 1 h, 2 h, 4 h, 7 h and 24 h; blood sampling time points for the intragastric administration group: 0, 5 min, 15 min, 30 min, 1 h, 2 h, 4 h, 7 h and 24 h. Before analysis and detection, all the samples were stored at -60°C or lower. The samples were analyzed quantitatively by LC-MS/MS. Table 4-1 PK data of test compound (i.e., drug) in rats

The target in data set [3] is T1, soluble guanylate cyclase (sGC) (Homo sapiens, UniProt Q02108+Q02153).
T1 construct: purchased ICE S2304F-H07SH2
T1 sequence (Q02153 1-619): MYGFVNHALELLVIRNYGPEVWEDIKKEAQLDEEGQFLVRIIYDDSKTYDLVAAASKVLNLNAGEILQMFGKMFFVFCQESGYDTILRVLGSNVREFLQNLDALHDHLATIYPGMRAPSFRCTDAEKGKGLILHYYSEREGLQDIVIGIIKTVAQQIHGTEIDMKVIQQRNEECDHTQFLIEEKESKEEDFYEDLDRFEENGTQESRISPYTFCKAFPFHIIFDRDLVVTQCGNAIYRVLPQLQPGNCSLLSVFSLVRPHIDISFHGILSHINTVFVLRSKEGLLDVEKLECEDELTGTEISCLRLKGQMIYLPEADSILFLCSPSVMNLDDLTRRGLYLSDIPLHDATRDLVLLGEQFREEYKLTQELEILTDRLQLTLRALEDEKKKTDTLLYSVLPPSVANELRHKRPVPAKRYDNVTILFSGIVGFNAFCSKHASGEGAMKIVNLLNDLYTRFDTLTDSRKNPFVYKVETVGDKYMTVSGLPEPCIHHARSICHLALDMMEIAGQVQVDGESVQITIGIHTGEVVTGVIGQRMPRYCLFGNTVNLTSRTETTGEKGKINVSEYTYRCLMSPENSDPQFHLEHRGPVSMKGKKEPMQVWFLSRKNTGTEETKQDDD
T1 sequence (Q02108 1-690): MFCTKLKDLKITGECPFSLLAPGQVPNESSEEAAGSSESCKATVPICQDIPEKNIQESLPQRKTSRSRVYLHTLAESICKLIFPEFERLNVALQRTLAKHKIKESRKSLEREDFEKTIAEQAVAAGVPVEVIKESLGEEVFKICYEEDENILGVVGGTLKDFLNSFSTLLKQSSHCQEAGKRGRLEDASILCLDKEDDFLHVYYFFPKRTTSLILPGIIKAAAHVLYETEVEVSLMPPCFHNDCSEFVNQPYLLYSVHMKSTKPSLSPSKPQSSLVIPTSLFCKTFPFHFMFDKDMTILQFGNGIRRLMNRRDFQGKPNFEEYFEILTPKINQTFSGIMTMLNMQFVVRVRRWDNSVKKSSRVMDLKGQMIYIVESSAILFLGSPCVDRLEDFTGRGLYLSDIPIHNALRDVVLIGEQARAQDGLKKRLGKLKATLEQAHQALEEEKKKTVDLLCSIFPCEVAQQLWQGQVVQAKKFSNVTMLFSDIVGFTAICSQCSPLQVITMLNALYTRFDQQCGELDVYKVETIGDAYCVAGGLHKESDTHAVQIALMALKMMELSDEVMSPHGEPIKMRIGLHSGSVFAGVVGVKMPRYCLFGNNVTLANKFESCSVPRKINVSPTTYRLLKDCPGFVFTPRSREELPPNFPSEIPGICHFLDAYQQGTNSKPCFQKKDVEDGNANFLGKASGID
In words: In vitro detection experiment for soluble guanylate cyclase (sGC) activity (TR-FRET cGMP). The class given is biochemical. As to conditions: enzymatic agonism and/or activation of sGC; 1.5 nM sGC, 5 µM GTP, 100 µM DETA NONOate. As for the experimental part: First, 100 nL of the compounds at different concentrations were transferred to a 384-well reaction plate (Greiner, Cat. No. 784075) using Echo 655 (LABCYTE, Cat # 655), with the final DMSO concentration of 1% in the reaction mixture; 2 µL of sGC (ICE, Cat. No. S2304F-H07SH2) was added to the 384-well reaction plate, and the mixture was centrifuged at 1000 rpm for 1 min; and then 1 µL of DETA NONOate was added, and the mixture was incubated at 37°C for 10 min. After the incubation was completed, 2 µL of GTP was added, and the mixture was centrifuged at 1000 rpm for 1 min and reacted at 37°C for 60 min. In the reaction system, the final concentrations of sGC, GTP, and DETA NONOate were 1.5 nM, 5 µM, and 100 µM, respectively. After the reaction was completed, 5 µL of the test mixture (PerkinElmer, Cat. No. 62GM2PEG) was added, and the mixture was incubated at room temperature for 60 min. The TR-FRET signal (Ratio: 665/620 nm) was read using a microplate reader (BMG, Cat. No. PHERAstar FSX). A nonlinear regression curve was fitted using GraphPad Prism software, and EC50 values were calculated. Compound A (Example 1 in WO 2010065275) was used as a positive reference compound. The activation rate was calculated according to Equation 2-1, where Low control represents the TR-FRET signal value of 1 µM compound A, and High control represents the TR-FRET signal value in the DMSO well. Stimulation% = (aveHighcontrol−cpdwell)/(ave High control−ave Low; control)*100% [formula] Table 2-1 Results of enzymatic agonism and/or activation of test compounds on soluble guanylate cyclase (sGC).

Data set [4] is described as follows: Mouse pharmacokinetic assay. The class given is in vivo, ICR mice. Particulars: mouse, po; mice, i.g., 10 mg/kg, plasma; read-out: AUC. As for the experimental part: Experimental objective: In this experiment, a single dose of test compounds was administered to ICR mice intravenously and intragastrically, the concentrations of the test compounds in the plasma of mice were measured, and the pharmacokinetic characteristics and bioavailability of the test compounds in mice were evaluated.
Experimental animals: male ICR mice, 20-35 g, purchased from Chengdu Dossy Experimental Animals Co., Ltd.
Experimental method: On the day of the experiment, the ICR mice were randomly grouped according to their body weight. The animals were fasted but with water available overnight before the administration, and fed 4 h after the administration.
Sampling: Blood was taken from the orbits at specified time points, and placed in an EDTAK2 centrifuge tube. The tube was centrifuged at 5000 rpm for 10 min, and the plasma was collected.
Time points for plasma collection in G1 group: 0, 5 min, 15 min, 30 min, 1 h, 2 h, 4 h, 7 h, and 24 h.
Time points for plasma collection in G2 group: 0, 5 min, 15 min, 30 min, 1 h, 2 h, 4 h, 7 h, and 24 h.
Before analysis and detection, all the samples were stored at -60°C or lower. The samples were analyzed quantitatively by LC-MS/MS. Table 3-1 PK data of test compound (i.e., drug) in mice

`CC(C)CN1CCN2c3cc(F)c(-c4ccc(Cl)cc4N4CCC[C@H](n5ncc(C(=O)O)c5C(F)F)C4)cc3CC[C@@H]2C1` [Compound 6-2] registered a half-life at 1 µM in data set [1] of 117 min. In addition, in data set [1] (read-out: CLint(mic)), the microsomal CLint at 1 µM was determined as 11.8 µL/min/mg. Moreover, the AUC in data set [2] and in data set [4] was above 10000 ng·h/mL each time. The compound also gave a pEC50 in data set [3] above 7.70.
